Source: patent US20170066797A1, “WITHAFERIN A ANALOGS AND USES THEREOF” (Whitehead Institute for Biomedical Research, priority 2008, published 2017)

Legend:
[1] = tested on: minimal heat shock response element derived from the promoter region of the Hsp70B gene; test: Heat shock reporter (EGFP) induction; format: cell-based; settings: overnight exposure, FIG. 8
Protocol: FIG. 8. Heat shock reporter induction measured by micro plate fluorimeter. Reporter cells stably transduced with a plasmid encoding enhanced green fluorescent protein (EGFP) under the control of a minimal heat shock response element were exposed to 2,3-dihydrowithaferin A-3β-O-sulfate (WA-SO4) or withaferin A (WA) at the indicated concentrations overnight. Relative fluorescence units (RFU) per well were determined as a measure of reporter activation. Each point represents the mean of nine determinations from three independent experiments.
Immortalized mouse embryo fibroblasts derived from homozygous Hsf1 knockout mice or their wild type littermates were exposed overnight to equitoxic concentrations of 1 or the known heat shock-inducing Hsp90 inhibitor gendanamycin. Whole cell lysates were prepared in non-ionic detergent buffer and immunoblotted for relative levels of Hsp72, a highly inducible member of the Hsp70 family of molecular chaperones, using monoclonal antibody C92F3A-5 (StressMarq Biosciences, Victoria, BC). Reactivity was detected using peroxidase-conjugated secondary antibody and chemiluminescent detection. To evaluate the relative ability of compounds to induce a heat shock response at the transcriptional level, a reporter cell line was used as previously described (Turbyville, et al., J. Nat. Prod. (2006) 69: 178-184, incorporated herein by reference). […]

Hsp72, Hsp27 = test: Heat-shock protein induction in organs after IP administration; format: in vivo, mice; settings: IP 18 mg/kg/day, 16 hours after last injection, FIG. 10
Protocol: FIG. 10. Heat-shock protein induction following Withaferin A (WA) administration to mice. WA was formulated in DMSO/Cremophor/Saline vehicle and injected intraperitoneally (IP) at a total dose of 18 mg/kg/day, either as a single injection (WA ×1) or divided in two 9 mg/kg injections (WA ×2) spaced 6 hrs apart. Control animals received an equal volume of vehicle alone as a single injection. Mice were sacrificed 16 hours after the last injection, organs harvested and protein lysates prepared for immunoblotting. Equal loading of samples was confirmed by staining membranes for total protein (left panels). The relative tissue levels of Hsp72, Hsp27 and Annexin 2 (a putative target of Withaferin A) were determined by probing with specific antibodies as indicated. Note the robust induction of heat shock protein levels in spleen (Annexin 2 positive), but not normal brain (Annexin 2 negative) associated with prior Withaferin A exposure.

Annexin 2 = biological target: T1, Annexin 2 (Homo sapiens, UniProt P07355); test: Pull-down with biotinylated withaferin A on NeutrAvidin beads with competition; format: binding; settings: competition with WA 40 μM, 36 kDa band, FIG. 11
T1 construct: incubated with pre-cleared whole cell extract that had been previously supplemented with WA (40 μM) or an equal volume of DMSO; endogenous in cells
Protocol: FIG. 11. Stable and specific binding of Annexin 2 by withaferin A. Biotinylated withaferin A (WA) was captured on NeutrAvidin (NA)-coated beads and incubated with pre-cleared whole cell extract that had been previously supplemented with WA (40 μM) or an equal volume of DMSO. After low stringency washes, proteins bound to beads were eluted, size fractioned by SDS-PAGE, stained with Sypro Ruby, and visualized by UV illumination. The arrowhead indicates the position of a 36 kDa band effectively competed away by WA. Pre-clear lane: Proteins in whole cell extract that bound non-specifically to NA beads alone (no immobilized WA present) during pre-clearing incubation.

T1 sequence (P07355 whole entry, species assumed): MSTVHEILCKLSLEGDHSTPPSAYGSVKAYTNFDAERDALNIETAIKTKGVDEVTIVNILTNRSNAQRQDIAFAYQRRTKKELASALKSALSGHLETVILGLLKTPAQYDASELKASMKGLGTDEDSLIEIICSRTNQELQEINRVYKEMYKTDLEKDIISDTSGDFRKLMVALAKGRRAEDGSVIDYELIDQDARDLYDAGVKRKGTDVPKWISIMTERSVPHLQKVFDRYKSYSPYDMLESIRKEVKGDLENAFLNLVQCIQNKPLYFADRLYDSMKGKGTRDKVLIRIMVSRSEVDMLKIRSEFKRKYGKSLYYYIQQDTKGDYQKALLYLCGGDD

CC1=C(CO)C(=O)OC([C@@H](C)C2CCC3C4C[C@H]5O[C@]56[C@@H](O)C=CC(=O)[C@]6(C)C4CC[C@@]32C)C1 (stereo partly shown) [Withaferin A]
heat shock reporter induction [1]: response can be induced at compound exposures compatible with cell survival
heat shock response induction in brain (Hsp72, Hsp27; annexin II absent): not in brain cells
heat shock response induction in spleen (Hsp72, Hsp27; annexin II present): induces the heat shock response in spleen cells
binding to annexin II (Annexin 2): binds stably and selectively to annexin II
